From ChEMBL document CHEMBL1201862, “PubChem BioAssay data set” (2004)
Several values for one entry are separate records, joined by “and”; a condition that tells them apart may be missing. Equal values may be shown once. Activity calls are given as the source filed them. Where a SMILES comes first, the peptide text is derived from it. [ ]: non-standard residue; d: D form. The star is where a group is joined. ξ: configuration not given here. Cbz = O=C(OCc1ccccc1)*; ξL = CC(C)CC(N)C(=O)O; ξP = O=C(O)C1CCCN1

Legend:
[1] = target: T1, Heat shock factor protein 1 (Mus musculus, UniProt P38532); test: decrease of HSF1-responsive luciferase luminescence – cell-based, NIH3T3, dose retest, confirmation (AID 2382); type: functional;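 note: NIH3T3 fibroblasts with HSF1-driven luciferase reporter stressed by proteasome inhibitor MG132; luminescence from HSF1-driven luciferase expression after 8 hours of MG132 stress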
T1 sequence (P38532 whole entry): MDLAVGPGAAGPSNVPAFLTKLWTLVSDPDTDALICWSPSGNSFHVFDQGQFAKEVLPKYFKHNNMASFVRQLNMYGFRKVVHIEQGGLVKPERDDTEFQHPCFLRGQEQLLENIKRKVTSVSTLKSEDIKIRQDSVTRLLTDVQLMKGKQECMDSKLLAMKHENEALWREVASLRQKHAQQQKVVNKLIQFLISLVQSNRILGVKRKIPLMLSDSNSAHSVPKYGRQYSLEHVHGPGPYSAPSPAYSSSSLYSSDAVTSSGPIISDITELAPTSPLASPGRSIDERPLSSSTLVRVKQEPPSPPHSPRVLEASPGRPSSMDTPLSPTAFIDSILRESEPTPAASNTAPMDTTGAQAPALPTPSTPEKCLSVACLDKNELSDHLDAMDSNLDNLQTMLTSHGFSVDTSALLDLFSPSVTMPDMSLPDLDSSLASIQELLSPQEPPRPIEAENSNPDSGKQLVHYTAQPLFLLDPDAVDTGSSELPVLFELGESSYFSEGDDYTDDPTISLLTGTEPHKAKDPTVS

[2] = test system: Streptococcus sp. 'group A'; test: Streptococcus pyogenes SK(-)GAS viability under kanamycin – luminescence, BacTiterGlo, confirmation, counter-screen for streptokinase expression inhibitor project, dose response (AID 1900); type: functional, organism-based
Streptococcus = test: GAS UMAA2166 growth inhibition – luminescence, BacTiterGlo, counter-screen for streptokinase expression inhibitor project, dose response (AID 1915); type: functional, organism-based;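 note: potency for reduction of bacterial viability or growth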
Cytochrome P450 2C9 = Cytochrome P450 2C9 (Homo sapiens, UniProt P11712)
Chain of Cytochrome P450 2C9 (P11712 whole entry): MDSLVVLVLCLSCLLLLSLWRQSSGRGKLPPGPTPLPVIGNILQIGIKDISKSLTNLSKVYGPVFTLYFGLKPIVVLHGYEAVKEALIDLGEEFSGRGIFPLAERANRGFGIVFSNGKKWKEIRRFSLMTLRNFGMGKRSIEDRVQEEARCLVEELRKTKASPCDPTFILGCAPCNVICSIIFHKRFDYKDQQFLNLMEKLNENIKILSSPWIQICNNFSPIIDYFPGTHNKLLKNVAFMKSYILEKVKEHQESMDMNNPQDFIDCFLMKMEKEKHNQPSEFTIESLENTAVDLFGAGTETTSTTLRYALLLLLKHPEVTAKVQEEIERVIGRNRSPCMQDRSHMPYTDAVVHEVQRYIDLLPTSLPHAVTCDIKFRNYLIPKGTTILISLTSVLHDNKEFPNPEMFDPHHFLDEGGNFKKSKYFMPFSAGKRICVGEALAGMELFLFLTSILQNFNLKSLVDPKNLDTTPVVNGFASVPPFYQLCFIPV

[3] = Luminescence Cell-Based Dose Retest to Confirm Inhibitors of Cancer Stem Cells. [Related pubchem assays (depositor defined):AID2717, AID2721]; type: functional; conditions: Homo sapiens
Cytochrome P450 1A2 = target: T2, Cytochrome P450 1A2 (Homo sapiens, UniProt P05177);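 note: PubChem cytochrome P450 panel assay, CYP1A2 panel member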
T2 sequence (P05177 whole entry): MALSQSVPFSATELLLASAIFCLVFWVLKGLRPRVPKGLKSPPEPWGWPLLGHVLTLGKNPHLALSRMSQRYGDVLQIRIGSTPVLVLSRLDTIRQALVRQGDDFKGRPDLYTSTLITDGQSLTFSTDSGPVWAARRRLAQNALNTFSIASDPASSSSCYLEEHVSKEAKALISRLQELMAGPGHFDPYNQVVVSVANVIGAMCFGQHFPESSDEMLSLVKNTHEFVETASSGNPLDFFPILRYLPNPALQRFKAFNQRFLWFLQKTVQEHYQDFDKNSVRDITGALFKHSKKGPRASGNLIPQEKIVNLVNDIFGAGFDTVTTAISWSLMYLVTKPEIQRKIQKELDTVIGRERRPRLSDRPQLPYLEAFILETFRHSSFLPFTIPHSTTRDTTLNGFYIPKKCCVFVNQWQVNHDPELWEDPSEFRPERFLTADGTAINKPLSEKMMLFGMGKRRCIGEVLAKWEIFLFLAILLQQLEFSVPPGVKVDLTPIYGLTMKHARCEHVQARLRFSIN

Cytochrome P450 2D6 = Cytochrome P450 2D6 (Homo sapiens, UniProt P10635);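 note: CYP2D6 member of a cytochrome P450 panel assay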
Chain of Cytochrome P450 2D6 (P10635 whole entry): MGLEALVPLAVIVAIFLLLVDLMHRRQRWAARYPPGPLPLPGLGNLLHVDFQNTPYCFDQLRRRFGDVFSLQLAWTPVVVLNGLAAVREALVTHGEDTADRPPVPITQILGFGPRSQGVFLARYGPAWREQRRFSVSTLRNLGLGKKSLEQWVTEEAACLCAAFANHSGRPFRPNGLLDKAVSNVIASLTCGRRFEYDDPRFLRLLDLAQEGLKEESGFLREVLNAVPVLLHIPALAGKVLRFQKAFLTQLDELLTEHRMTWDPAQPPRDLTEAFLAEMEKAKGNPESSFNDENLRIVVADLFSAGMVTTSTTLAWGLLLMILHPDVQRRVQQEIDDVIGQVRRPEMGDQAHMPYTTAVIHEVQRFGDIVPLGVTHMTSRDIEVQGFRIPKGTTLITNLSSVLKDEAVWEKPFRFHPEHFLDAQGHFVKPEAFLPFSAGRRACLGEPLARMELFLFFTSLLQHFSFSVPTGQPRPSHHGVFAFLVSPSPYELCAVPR

Cytochrome P450 3A4 = Cytochrome P450 3A4 (Homo sapiens, UniProt P08684);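 note: CYP3A4 tested as one member of a cytochrome P450 panel screen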
Chain of Cytochrome P450 3A4 (P08684 whole entry): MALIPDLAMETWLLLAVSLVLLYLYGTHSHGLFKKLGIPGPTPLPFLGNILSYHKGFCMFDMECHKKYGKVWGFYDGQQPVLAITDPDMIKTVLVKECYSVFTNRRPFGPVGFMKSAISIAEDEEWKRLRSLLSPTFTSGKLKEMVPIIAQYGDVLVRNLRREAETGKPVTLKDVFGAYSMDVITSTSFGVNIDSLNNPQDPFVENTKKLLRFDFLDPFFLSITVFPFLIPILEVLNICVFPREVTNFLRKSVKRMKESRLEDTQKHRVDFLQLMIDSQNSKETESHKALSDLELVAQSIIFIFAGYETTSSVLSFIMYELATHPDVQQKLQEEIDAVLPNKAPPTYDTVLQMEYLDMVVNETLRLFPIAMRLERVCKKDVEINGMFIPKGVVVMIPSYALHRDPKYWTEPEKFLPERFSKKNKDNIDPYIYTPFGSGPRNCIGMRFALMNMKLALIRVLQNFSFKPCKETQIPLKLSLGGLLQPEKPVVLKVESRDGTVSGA

Cytochrome P450 2C19 = Cytochrome P450 2C19 (Homo sapiens, UniProt P33261); test: Cytochrome panel assay with activity outcomes. Panel member name: p450-cyp2c19 Compounds with AC50 equal or less than 10 uM are considered active; type: functional; conditions: read-out: AC50
Chain of Cytochrome P450 2C19 (P33261 whole entry): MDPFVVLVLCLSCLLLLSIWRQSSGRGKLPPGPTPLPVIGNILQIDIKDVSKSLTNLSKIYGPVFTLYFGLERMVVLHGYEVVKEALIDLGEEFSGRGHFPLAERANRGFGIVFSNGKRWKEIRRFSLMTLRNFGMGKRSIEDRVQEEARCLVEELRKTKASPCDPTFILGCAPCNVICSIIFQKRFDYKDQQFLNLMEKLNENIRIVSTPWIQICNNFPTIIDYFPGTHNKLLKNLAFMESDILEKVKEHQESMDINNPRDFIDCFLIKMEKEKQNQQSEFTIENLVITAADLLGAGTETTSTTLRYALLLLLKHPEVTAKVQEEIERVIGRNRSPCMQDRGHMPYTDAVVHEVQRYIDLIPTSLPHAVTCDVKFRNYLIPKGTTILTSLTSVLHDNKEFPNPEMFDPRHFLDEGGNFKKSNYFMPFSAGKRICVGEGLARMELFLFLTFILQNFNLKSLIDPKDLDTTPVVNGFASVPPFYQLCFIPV

Paired box protein Pax-8 = Paired box protein Pax-8 (Homo sapiens, UniProt Q06710); test: PAX8 transcriptional activity inhibition in RMG-I – RMG-I cells, luciferase, cherry-pick, dose response (AID 687027); type: functional, cell-based;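 note: luciferase reporter driven by Pax8 target thyroperoxidase promoter measured by SteadyGlo luminescence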
Chain of Paired box protein Pax-8 (Q06710 whole entry): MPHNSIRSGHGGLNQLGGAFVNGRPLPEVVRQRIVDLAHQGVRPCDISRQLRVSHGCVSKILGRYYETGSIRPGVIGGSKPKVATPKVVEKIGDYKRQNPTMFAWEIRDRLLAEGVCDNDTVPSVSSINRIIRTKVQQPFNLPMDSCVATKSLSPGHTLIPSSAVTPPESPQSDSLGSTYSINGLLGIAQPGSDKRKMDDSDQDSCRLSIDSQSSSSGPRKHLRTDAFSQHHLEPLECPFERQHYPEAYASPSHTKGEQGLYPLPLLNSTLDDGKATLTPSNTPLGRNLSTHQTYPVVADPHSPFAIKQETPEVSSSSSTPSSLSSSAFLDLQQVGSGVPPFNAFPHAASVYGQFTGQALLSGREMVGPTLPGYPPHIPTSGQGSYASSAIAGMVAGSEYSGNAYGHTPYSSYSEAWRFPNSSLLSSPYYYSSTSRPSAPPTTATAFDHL

[4] = Trypanosoma cruzi growth suppression in host cells – NIH3T3 host cells, beta-gal luminescence, confirmation (AID 2044); type: functional, cell-based;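 note: intracellular parasites grown in NIH/3T3 mouse fibroblasts as host cells; luminescent beta-galactosidase reporter signal from transgenic T. cruzi replicating inside host cells; inhibitors lower the luminescence signal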
[5] = NIH3T3 cell viability loss – ATP luminescence, mouse fibroblasts, counter-screen, dose response (AID 2010); type: functional, cell-based;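 note: cells exposed to compound for about 90 hours before reading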
INS1 = test: INS-1E survival protection against cytokine death – cell-based, luminescence, retest, dose response (AID 449756); type: functional; conditions: Rattus norvegicus;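 note: cell death triggered by IL-1 beta plus TNF-alpha plus IFN-gamma mixture; protective hits raise ATP signal compared with cytokine alone wells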

CN(C(=O)C1CCOC1)c1nnc(-c2ccncc2)s1 (stereo unspecified)
EC50 [1]: > 195 µM (not active)

CC(C)NC(=O)CC(=O)N/N=C\c1ccccc1C(=O)O
EC50 [1]: > 195 µM (not active)

CC(C)(C)c1nc(N2CCN(C(=O)c3ccco3)CC2)c2nnn(Cc3ccccc3)c2n1
EC50 [1]: > 195 µM (not active)

N#CCC(=O)Nc1ccc(C(=O)OC(C(=O)Nc2cc(C(F)(F)F)ccc2Cl)c2ccccc2)cc1 (stereo unspecified)
EC50 [2]: 2.31 µM (active) | EC50 (Streptococcus): 6.92 µM (active)

CC(=O)Nc1ccc(C(=O)NNC(=O)CCc2ccccc2)cc1
AC50 (Cytochrome P450 2C9): 39.8 µM (inconclusive)

CC(Nc1nc(-c2ccc(Cl)cc2)cs1)c1nc2cc(Cl)c(N3CCCCC3)cc2n1CCOCCO (stereo unspecified)
AC50 [3]: 1.1 µM (active)

COC(=O)[C@@]1(Cc2ccccc2)[C@H]2c3cc(C(=O)N(C)C)n(Cc4c(CO)ncc(C)c4O)c3C[C@H]2CN1C(=O)c1ccccc1
AC50 (Cytochrome P450 1A2): 25.1 µM (inconclusive)

C/C(CCN1CCc2nc(-c3ccccc3)c(-c3ccccc3)cc2C1)=N\O[C@@H](C)CN1CCCc2nc(C)c(C)cc21
AC50 (Cytochrome P450 2D6): 3.16 µM (inconclusive) | AC50 (Cytochrome P450 3A4): 3.98 µM (inconclusive)

C=CCSc1nn2c(=O)c3ccccc3nc2s1
AC50 (Cytochrome P450 2D6): 25.1 µM (inconclusive) | AC50 (Cytochrome P450 2C9): 25.1 µM (inconclusive)

C/C(=N/NC(=O)Cc1cccn1C)c1ccccc1
AC50 (Cytochrome P450 2C9): 25.1 µM (inconclusive)

CCCCCCc1c(O)noc1C[C@H](N)C(=O)O
AC50 (Cytochrome P450 1A2): 25.1 µM (inconclusive) and 31.6 µM (inconclusive)

O=C(O)c1cc([N+](=O)[O-])ccc1NCCCc1ccccc1 [5-NITRO-2-PHENYLPROPYLAMINOBENZOIC ACID [NPPB]]
AC50 (Cytochrome P450 1A2): 39.8 µM (inconclusive)

CCCCCCSc1cccc(-c2nc3ccc(C)cn3c2NCc2ccccc2)c1
AC50 [3]: 3.14 µM (active)

O=C(CNC(=O)c1ccco1)OC(C(=O)c1ccccc1)c1ccccc1 (stereo unspecified)
AC50 (Cytochrome P450 1A2): 15.8 µM (inconclusive) | AC50 (Cytochrome P450 3A4): 28.2 µM (inconclusive)

Cc1cccc(CNc2ncncc2-c2ccc(C(=O)N(C)C)cc2)c1
AC50 (Cytochrome P450 1A2): 15.8 µM (inconclusive) | AC50 (Cytochrome P450 2C19): 31.6 µM (inconclusive)

COC(=O)C1CCN(C(=O)c2sc3nc(-c4ccccc4)cn3c2C)CC1
EC50 [1]: > 195 µM (not active)

O=C1Oc2ccccc2C2(O)C3CCCCCC3C12 (stereo unspecified)
AC50 (Cytochrome P450 2C9): 22.4 µM (inconclusive)

C[C@@H]1CCCCO[C@H](CN(C)C(=O)Cc2ccccc2)[C@H](C)CN([C@@H](C)CO)C(=O)c2cc(NC(=O)Nc3ccc(C(F)(F)F)cc3)ccc2O1
AC50 (Paired box protein Pax-8): 8.05 µM (active)

O=c1cc(-c2ccc(O)cc2)oc2c([C@H]3O[C@@H](CO)[C@@H](O)[C@@H](O)[C@@H]3O)c(O)cc(O)c12
AC50 (Cytochrome P450 1A2): 20 µM (inconclusive)

CCOC(=O)C1=C(N)n2c(s/c(=C/c3ccccc3)c2=O)=C(C(=O)OCC)C1c1ccccc1 (stereo unspecified)
AC50 (Cytochrome P450 2C9): 2.82 µM (inconclusive)

O=C(O)[C@H]1CCc2ccc3ccccc3c2[C@H]1c1cccc2ccccc12
AC50 (Cytochrome P450 2C9): 7.94 µM (inconclusive)

COc1cc2c(cc1OC)C(C(=O)N1CCN(c3ccccn3)CC1)C(c1cccs1)N(C)C2=O (stereo unspecified)
AC50 (Cytochrome P450 2C9): 17.8 µM (inconclusive)

O=C(NCc1ccccc1Cl)C1CCN(S(=O)(=O)N2CCCC2)CC1
EC50 [1]: > 195 µM (not active)

CC(C)(C)c1ccc(NS(=O)(=O)c2ccc(N)cc2)cc1
AC50 (Cytochrome P450 1A2): 3.16 µM (inconclusive) | AC50 (Cytochrome P450 3A4): 1 µM (inconclusive)

CC1(C(=O)NCCCNc2ncc(C(F)(F)F)cc2Cl)C=CC2(CCCCC2)N1C(=O)c1ccccc1 (stereo unspecified)
EC50 [1]: > 195 µM (not active)

Cc1cccc(-n2c(S)nnc2Cn2nc(C)c([N+](=O)[O-])c2C)c1
AC50 (Cytochrome P450 2C9): 7.08 µM (inconclusive) | AC50 (Cytochrome P450 2C19): 20 µM (inconclusive)

O=[N+]([O-])c1cccnc1N1CCCCC1
AC50 (Cytochrome P450 2C9): 3.16 µM (inconclusive) | AC50 (Cytochrome P450 2C19): 0.00562 µM (inconclusive)

O=C(Nc1ccc(F)cc1)c1nc(O)c2nnn(Cc3cccc4ccccc34)c2n1
EC50 [2]: 2.58 µM (active) | EC50 (Streptococcus): 37.2 µM (active)

Sc1nnc(-c2ccc(Cl)cc2)n1Cc1ccccc1
AC50 [3]: 0.734 µM (active)

CCC(=O)[C@@H](c1ccccc1)c1ccccn1
AC50 (Cytochrome P450 1A2): 5.01 µM (inconclusive)

C[C@H](CO)NC(=O)[C@H](C)[C@H]1C[C@]1(C)[C@H](NC(=O)OCc1ccccc1)c1ccccc1
AC50 (Cytochrome P450 2D6): 15.8 µM (inconclusive) | AC50 (Cytochrome P450 2C9): 25.1 µM (inconclusive)

O=C(CSc1nccn1-c1ccccc1)c1ccc(Cl)cc1
AC50 (Cytochrome P450 2D6): 3.16 µM (inconclusive) | AC50 (Cytochrome P450 2C9): 3.98 µM (inconclusive)

CCNc1ncc2nc(-c3ccc(OC)cc3)c(=O)n(Cc3cccc(OC)c3)c2n1
AC50 (Cytochrome P450 1A2): 15.8 µM (inconclusive) | AC50 (Cytochrome P450 3A4): 25.1 µM (inconclusive)

CCOc1ccc(N2C(=O)CN=C2Nc2ccccc2Cl)cc1
AC50 (Cytochrome P450 2C19): 11.2 µM (inconclusive) | AC50 (Cytochrome P450 3A4): 15.8 µM (inconclusive)

COCCn1c(=O)[nH]c2cc(C(=O)NC3CCCCCC3)ccc2c1=O
EC50 [1]: > 195 µM (not active)

O=C(Nc1nnc(S(=O)(=O)N2CCCCCC2)s1)c1ccccc1Cl
EC50 [1]: > 195 µM (not active)

COC(=O)CCN1CCc2cc(N=Nc3ccc([N+](=O)[O-])cc3)ccc21
EC50 [1]: 40.1 µM (active)

COc1cc(N)ccc1C(=O)O
EC50 [1]: > 195 µM (not active)

Cc1ccc(S(=O)(=O)N(CC(=O)N/N=C/c2ccc(F)cc2)c2cccc3cccnc23)cc1
AC50 (Cytochrome P450 2C9): 1.58 µM (inconclusive)

COCCn1c(=O)c(-c2cccs2)nc2cncnc21
AC50 (Cytochrome P450 2C9): 20 µM (inconclusive) | AC50 (Cytochrome P450 2C19): 25.1 µM (inconclusive)

CC(C)CC(NC(=O)C1CCCN1C(=O)[C@@H](C)NC(=O)OCc1ccccc1)C(=O)NCC(N)=O (stereo partly specified) (Cbz-[dA][ξP][ξL]G-NH2)
EC50 [1]: > 195 µM (not active)

Oc1ccccc1/C=N/Nc1nnn[nH]1
EC50 [1]: > 195 µM (not active)

CC(C)n1c(N2CCN(C(=O)Nc3ccccc3)CC2)nc2ccccc21
AC50 (Cytochrome P450 1A2): 25.1 µM (inconclusive) | AC50 (Cytochrome P450 2C19): 22.4 µM (inconclusive)

C[C@H]1CC[C@@]2(C)[C@@H](CC[C@@H]3[C@@H]2CC[C@]2(C)[C@@H](O)CC[C@@H]32)C1
EC50 [2]: 0.643 µM (active) | EC50 (Streptococcus): 2.65 µM (active)

CC1CCCC(C)N1C(=O)CSc1ccc(-c2ccc3c(c2)OCCO3)nn1 (stereo unspecified)
EC50 [1]: > 195 µM (not active)

Cn1cccc1C(=O)N1CCC2(CC1)CCN(c1cccc(-c3ccccc3)c1)CC2
AC50 (Cytochrome P450 1A2): 20 µM (inconclusive)

CCCCCCN(CCCCCC)C(=O)Cc1c(-c2ccc(Cl)cc2)[nH]c2ccc(Cl)cc12
AC50 (Cytochrome P450 1A2): 31.6 µM (inconclusive) | AC50 (Cytochrome P450 2C19): 10 µM (inconclusive)

Cc1ccc(C(=O)CSc2nc(-c3ccccc3)ccc2C#N)cc1
AC50 [3]: 3.28 µM (active)

O=C(C[C@H]1CC[C@H]2[C@@H](COC[C@@H](O)CN2S(=O)(=O)c2ccccc2Cl)O1)N1CCC(Cc2ccccc2)CC1
AC50 (Paired box protein Pax-8): 23.7 µM (active)

C/C(CC(=O)Nc1ccc(N(C)C)cc1)=N\NC(=O)Cc1csc(N)n1
EC50 [1]: > 195 µM (not active)

O=Nc1ccc(NOC(=O)c2ccc(Br)cc2)cc1
AC50 (Cytochrome P450 2C9): 25.1 µM (inconclusive)

COc1ccc(Nc2nc(-c3cccc([N+](=O)[O-])c3)nc3ccccc23)cc1
EC50 [4]: 1.71 µM (active) | EC50 [5]: > 60 µM (not active) | AC50 [3]: 2.83 µM (active)

CC(=CCOc1ccc2ccc(=O)oc2c1)C1=CC(=O)C(C)(C)O1
AC50 (Paired box protein Pax-8): 4.95 µM (active)

Cc1cc(OCC(F)(F)C(F)(F)C(F)(F)C(F)(F)C(F)(F)C(F)F)nc(N)n1
AC50 (Cytochrome P450 1A2): 28.2 µM (inconclusive)

COc1cccc(-c2ccc3ncnc(NCc4cccs4)c3c2)c1
AC50 (Cytochrome P450 2C9): 0.631 µM (inconclusive)

COc1ccc(-c2sc3ccccc3c2-c2ccc(OCCN3CCCCC3)cc2)cc1
AC50 (INS1): 8.34 µM (active) | AC50 [3]: 0.914 µM (active)
